Tests used:
Weisella confusa = conditions: fermentation mixture; cited from earlier work
[1] = tested on: Culture Dry Yeast (CDY) corn-mash fermentations; assay: HPLC of corn-mash fermentations challenged with bacterial contamination and LAE treatments; format: cell-based; conditions: CDY + treatment + Bacteria; average
From the text: In support of validating LAE, High Performance Liquid Chromatography (HPLC) was used in a first phase of testing to evaluate the effects of LAE applications at various concentrations in order to determine the minimal inhibitory concentrations (MIC) of the LAE antimicrobial on a panel of industry-relevant bacteria. Refer to Tables 1 and 2 below, as well as FIGS. 2A-2D. FIG. 2A provides a visual depiction of test data relating to ethanol output from corn-mash fermentations treated with varying concentrations of LAE, with the results being the averages of triplicate samples (within one standard deviation). FIG. 2B provides a visual depiction of test data relating to ethanol output from corn-mash fermentations challenged with bacterial contamination and treated with 35 ppm LAE or 5 ppm Lactocide V (Virginamycin) (at the same time as the introduction of the bacteria), with the results being the averages of triplicate samples (within one standard deviation). FIG. 2C provides a visual depiction of test data relating to ethanol output from corn-mash fermentations challenged with bacterial contamination and treated with 50 ppm LAE or 5 ppm Lactocide V (Virginamycin) (at the same time as the introduction of the bacteria), with the results being the averages of triplicate samples (within one standard deviation). FIG. 2D provides a visual depiction of test data relating to colony-forming units (CFUs) of commercial yeast preparation with bacterial-contamination growth under batch-propagation conditions (molasses) with the addition of 0 ppm, 25 ppm, or 50 ppm LAE. One of the primary goals with the first phase of the LAE studies was to determine whether the addition of LAE would adversely affect ethanol production, and it was determined that LAE not only was not harmful to ethanol-production processes, but that unwanted microbe growth was inhibited using LAE enough to allow foregoing the use of antibiotics. Part of this analysis was to determine whether the introduction of LAE into the ethanol-production process would adversely impact the stillage byproducts used in animal feed, and for that matter whether the further use of LAE as a preservative in such byproducts would be safe for consumption by agricultural livestock. […] The testing serving as a basis for this conclusion assumed a maximum residual concentration of the LAE of 173 ppm in the distiller's grains. The safety of distiller's grains with LAE concentrations above 173 ppm was not fully evaluated.

fermentation = fermentation mixture; cited from earlier work

## Virginiamycin [Lactocide]
Weisella confusa
  concentration required to inhibit growth: over 25 mg/L
[1]
  Acetic Acid: 0.14 % wt/vol
  DP3: 0.15 % wt/vol
  DP4: 0.78 % wt/vol
  Ethanol: 13.36 % wt/vol
  Glucose: 0.12 % wt/vol
  Glycerol: 1.59 % wt/vol
  Lactic Acid: 0.27 % wt/vol
  Maltose: 0.48 % wt/vol
fermentation
  concentration that will suppress fermentation: over 6 mg/L

From patent US12365925B2, “Method and system for treatment of microorganisms during propagation, conditioning, fermentation, and preservation using ethyl lauroyl arginate and selected additives” (KEMIN INDUSTRIES, INC., priority 2015, dated 2025)
